Measured values as given in US20090176891A1, “DENTAL COMPOSITION AND METHOD OF USE” (priority 2007, published 2009).
Like-named read-outs stand apart in the source and are kept apart here.

Columns and labels:
[1] = system: common bacteria associated with failed root canal therapy; assay: Drug efficacy: zones of inhibition on agar plates; format: cell-based
Description: FIG. 6 is graph showing the antimicrobial efficacy of various dose strengths of CHX on bacterial growth on agar plates. The efficacy of the eluted amounts of CHX was tested to evaluate anti-microbial activity at various dose strengths compared to a positive control (Ampicillin). This pilot study was done to obtain a range of CHX elution amounts by weight required to kill common bacteria associated with failed root canal therapy.

[2] = species not given; cited from earlier work
RAT = conditions: cited from earlier work

`CC1(C)S[C@@H]2[C@H](NC(=O)[C@H](N)c3ccccc3)C(=O)N2[C@H]1C(=O)O` [Ampicillin] showed a zone of inhibition at 10000 µg/disc ([1]; 10 mg, positive control) of 14.5 mm.
In the case of `[H]/N=C(\N/C(=N/[H])NCCCCCCNC(=N)NC(=N)Nc1ccc(Cl)cc1)Nc1ccc(Cl)cc1` [CHX, chlorohexidine], the LD50 [2] is listed as 2000 mg/kg, the antimicrobial effect ([1]; 4 μg, compared with water (negative control)) is listed as “some antimicrobial effect can be seen” and the “zones of inhibition compared with Ampicillin” value ([1]; 31 to 250 μg) is listed as “equal to or better than that of Ampicillin”. The zone of inhibition at 0.5 µg/disc ([1]; dose 0.5 μg) was 0 mm, the zone of inhibition at 1 µg/disc ([1]; dose 1 μg) was 0 mm and the zone of inhibition at 2 µg/disc ([1]; dose 2 μg) was 0 mm. The zone of inhibition at 4 µg/disc ([1]; dose 4 μg) was 7 mm, the zone of inhibition at 7.8 µg/disc ([1]; dose 7.8 μg) was 9 mm and the zone of inhibition at 15.6 µg/disc ([1]; dose 15.6 μg) was 12.3 mm. It also gave a zone of inhibition at 31.25 µg/disc ([1]; dose 31.25 μg) of 14.3 mm, a zone of inhibition at 62.5 µg/disc ([1]; dose 62.5 μg) of 16.7 mm and a zone of inhibition at 125 µg/disc ([1]; dose 125 μg) of 16.3 mm. For the same molecule, the zone of inhibition at 250 µg/disc ([1]; dose 250 μg) was 17.3 mm.
For `CCOC(=O)c1ccc(N(C)C)cc1` [I3, Ethyl-4-N,N-dimethylaminobenzoate], the LD50 (RAT; RAT) is listed as 2000 mg/kg.
In the case of `C=C(C)C(=O)OCCN(C)C` [I4, N,N-Dimethylaminoethyl Methacrylate], the LD50 (RAT; RAT ORAL) is given as 1751 mg/kg.
For `[Cl-].c1ccc([I+]c2ccccc2)cc1` [I5, Diphenyliodonium chloride], the LD50 [2] is given as 60 mg/kg.
In the case of `C=C(C)C(=O)OCC(O)COc1ccc(C(C)(C)c2ccc(OCC(O)COC(=O)C(=C)C)cc2)cc1` (centres unmarked) [M3, 2,2-bis[p-(2-hydroxy-3-methacryloxypropoxy)phenyl]propane], the LD50 (RAT; RAT) is listed as greater than 5000 mg/kg.
For `C=C(C)C(=O)OCCOCCOCCOC(=O)C(=C)C` [M4, triethylene glycol dimethacrylate], the LD50 [2] is given as 10750 mg/kg.
In the case of `C=C(C)C(=O)OCCO` [M5, hydroxyl ethyl methacrylate], the LD50 [2] is given as 4680 mg/kg.
